Measured values published in patent US20230339981A1, “KRAS G12D MODULATING COMPOUNDS” (priority 2022, published 2023).

Tests used:
[1] = molecular target: GDP-loaded KRAS G12D (Homo sapiens (Human), UniProt P01116, G12D); test: KRAS G12D (GDP) biochemical assay (TR-FRET probe displacement); type: binding; details: 2 hours
Description: Example A. KRAS G12D (GDP) Biochemical Assay
Compounds were tested for binding to GDP-loaded KRAS G12D in a 384-well assay format using a TR-FRET probe displacement assay in buffer consisting of 50 mM Hepes (pH 7.4), 150 mM NaCl, 5 mM MgCl2 and 0.005% Tween-20. […] Compounds were serially diluted (1:3) in DMSO. The LabCyte ECHO Acoustic dispenser system was used to pre-spot the assay plates (384-well Non-Binding Surface plates, Corning, Catalog #3824) with 50 nL of compound. The compounds were pre-incubated with 5 μL of 2× final enzyme concentration for 30 minutes before adding 5 μL of 2× final concentration of Eu-streptavidin and TR-FRET probe (10 μL final reaction volume). The plates were incubated at room temperature for 2 hours before measuring TR-FRET ratio on the Envision plate reader. IC50 values were defined as the compound concentration that causes a 50% decrease in TR-FRET ratio and were calculated using a sigmoidal dose-response model to generate curve fits.

[2] = system: GP2D (KRAS G12D) cells; test: 2D cell viability assay (CellTiter-Glo); type: cell-based; details: GP2d, 96 h, 4 days
Description: Example B. 2D Cell Viability Assay
Compounds were tested in a 384-well format for their ability to inhibit the viability of GP2D (KRAS G12D) cells in 2D assays. Compounds were serially diluted (1:3) in DMSO. The LabCyte ECHO Acoustic dispenser system was used to pre-spot assay plates with 200 nL of test molecule per well. 1000 cells/well (40 μL volume per well) in RPMI medium with 10% FBS, and Penicillin-Streptomycin-Glutamine were plated in pre-spotted 384-well plates (Greiner, Catalog #781076) on the BioTEK EL406 liquid dispenser with a 5 μL dispensing cassette (BioTek 7170011). The plates were incubated at 37° C., 5% CO2 for 4 days before addition of CellTiter-Glo (CTG) reagent and measurement of luminescence signal. EC50 values were defined as the compound concentration that causes a 50% decrease in luminescence signal and were calculated using a sigmoidal dose-response model to generate curve fits.

Sequence of GDP-loaded KRAS G12D (P01116-2 other isoform, or with tags, fused parts or gaps G12D): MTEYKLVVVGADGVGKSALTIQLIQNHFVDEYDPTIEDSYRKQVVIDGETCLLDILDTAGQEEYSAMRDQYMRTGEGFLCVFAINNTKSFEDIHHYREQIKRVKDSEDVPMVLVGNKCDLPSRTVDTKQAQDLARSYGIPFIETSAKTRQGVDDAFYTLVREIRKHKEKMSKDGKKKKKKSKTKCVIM

| Compound | IC50 [1] [nM] | EC50 [2] [nM] |
| --- | --- | --- |
| Oc1cc(-c2nc3c4c(nc(OC[C@@]56CCCN5C[C@H](F)C6)nc4c2F)N2C[C@H]4CC[C@H](N4)[C@H]2CO3)c2c(F)c(F)c(F)c(F)c2c1 [Example 12, 5,6,7,8-tetrafluoro-4-((5aS,6S,9R)-1-fluoro-12-(((2R,7aS)-2-fluorotetrahydro-1H-pyrrolizin-7a(5H)-yl)methoxy)-5a,6,7,8,9,10-hexahydro-5H-4-oxa-3,10a,11,13,14-pentaaza-6,9-methanonaphtho[1,8-ab]heptalen-2-yl)naphthalen-2-ol] | 6 | 130 |
| Oc1cc(-c2nc3c4c(nc(OC[C@@]56CCCN5C[C@H](F)C6)nc4c2F)N2C[C@H]4CC[C@H](N4)[C@H]2CO3)c2c(CC3CC3)c(F)ccc2c1 [Example 14, 5-(cyclopropylmethyl)-6-fluoro-4-((5aS,6S,9R)-1-fluoro-12-(((2R,7aS)-2-fluorotetrahydro-1H-pyrrolizin-7a(5H)-yl)methoxy)-5a,6,7,8,9,10-hexahydro-5H-4-oxa-3,10a,11,13,14-pentaaza-6,9-methanonaphtho[1,8-ab]heptalen-2-yl)naphthalen-2-ol] | 34 | 530 |
| Oc1cc(-c2nc3c4c(nc(OC[C@@]56CCCN5C[C@H](F)C6)nc4c2F)N2C[C@H]4CC[C@H](N4)[C@@H]2CO3)c2ccccc2c1 [Example 19, 4-((5aR,6S,9R)-1-fluoro-12-(((2R,7aS)-2-fluorotetrahydro-1H-pyrrolizin-7a(5H)-yl)methoxy)-5a,6,7,8,9,10-hexahydro-5H-4-oxa-3,10a,11,13,14-pentaaza-6,9-methanonaphtho[1,8-ab]heptalen-2-yl)naphthalen-2-ol] | 590 | 3300 |
| C#Cc1c(F)ccc2cc(O)cc(-c3nc4c5c(nc(OCC6(CN7CCOCC7)CC6)nc5c3F)N3C[C@H]5CC[C@H](N5)[C@H]3CO4)c12 [Example 28, 5-ethynyl-6-fluoro-4-((5aS,6S,9R)-1-fluoro-12-((1-(morpholinomethyl)cyclopropyl)methoxy)-5a,6,7,8,9,10-hexahydro-5H-4-oxa-3,10a,11,13,14-pentaaza-6,9-methanonaphtho[1,8-ab]heptalen-2-yl)naphthalen-2-ol] | 0.6 | 7 |
| Fc1cccc2c(-c3nc4c5c(nc(OC[C@@]67CCCN6C[C@H](F)C7)nc5c3F)N3C[C@H]5CC[C@H](N5)[C@H]3CO4)cccc12 [Example 31, (5aS,6S,9R)-1-fluoro-2-(5-fluoronaphthalen-1-yl)-12-(((2R,7aS)-2-fluorotetrahydro-1H-pyrrolizin-7a(5H)-yl)methoxy)-5a,6,7,8,9,10-hexahydro-5H-4-oxa-3,10a,11,13,14-pentaaza-6,9-methanonaphtho[1,8-ab]heptalene] | 4900 | > 1000 |
| C#Cc1c(F)ccc2cc(O)cc(-c3nc4c5c(nc(OCC6(CN7CCC(F)CC7)CC6)nc5c3F)N3C[C@H]5CC[C@H](N5)[C@H]3CO4)c12 [Example 32, 5-ethynyl-6-fluoro-4-((5aS,6S,9R)-1-fluoro-12-((1-((4-fluoropiperidin-1-yl)methyl)cyclopropyl)methoxy)-5a,6,7,8,9,10-hexahydro-5H-4-oxa-3,10a,11,13,14-pentaaza-6,9-methanonaphtho[1,8-ab]heptalen-2-yl)naphthalen-2-ol] | 0.2 | 2 |
| C#Cc1c(F)ccc2cc(O)cc(-c3nc4c5c(nc(OCC6(CN7CCC[C@H](F)C7)CC6)nc5c3F)N3C[C@H]5CC[C@H](N5)[C@H]3CO4)c12 [Example 33, 5-ethynyl-6-fluoro-4-((5aS,6S,9R)-1-fluoro-12-((1-(((S)-3-fluoropiperidin-1-yl)methyl)cyclopropyl)methoxy)-5a,6,7,8,9,10-hexahydro-5H-4-oxa-3,10a,11,13,14-pentaaza-6,9-methanonaphtho[1,8-ab]heptalen-2-yl)naphthalen-2-ol] | 0.3 | 3 |
| C#Cc1c(F)ccc2cc(O)cc(-c3nc4c5c(nc(OCC6(CN7CCC[C@@H](F)C7)CC6)nc5c3F)N3C[C@H]5CC[C@H](N5)[C@H]3CO4)c12 [Example 34, 5-ethynyl-6-fluoro-4-((5aS,6S,9R)-1-fluoro-12-((1-(((R)-3-fluoropiperidin-1-yl)methyl)cyclopropyl)methoxy)-5a,6,7,8,9,10-hexahydro-5H-4-oxa-3,10a,11,13,14-pentaaza-6,9-methanonaphtho[1,8-ab]heptalen-2-yl)naphthalen-2-ol] | 0.2 | 2 |
| C#Cc1c(F)ccc2cc(O)cc(-c3nc4c5c(nc(OC[C@@]67CCCN6[C@H](CN=[N+]=[N-])CC7)nc5c3F)N3C[C@H]5CC[C@H](N5)[C@H]3CO4)c12 [Example 36, 4-((5aS,6S,9R)-12-(((3S,7aS)-3-(azidomethyl)tetrahydro-1H-pyrrolizin-7a(5H)-yl)methoxy)-1-fluoro-5a,6,7,8,9,10-hexahydro-5H-4-oxa-3,10a,11,13,14-pentaaza-6,9-methanonaphtho[1,8-ab]heptalen-2-yl)-5-ethynyl-6-fluoronaphthalen-2-ol] | 0.2 | 4 |
| Oc1cc(-c2nc3c4c(nc(OC[C@@]56CCCN5C[C@H](F)C6)nc4c2F)N2C[C@H]4CC[C@H](N4)[C@H]2CC3)c2c(OC3CC3)c(F)ccc2c1 [Example 37, 5-cyclopropoxy-6-fluoro-4-((5aR,6S,9R)-1-fluoro-12-(((2R,7aS)-2-fluorotetrahydro-1H-pyrrolizin-7a(5H)-yl)methoxy)-4,5,5a,6,7,8,9,10-octahydro-3,10a,11,13,14-pentaaza-6,9-methanonaphtho[1,8-ab]heptalen-2-yl)naphthalen-2-ol] | 1 | 9 |
| C#Cc1c(F)ccc2cc(O)cc(-c3nc4c5c(nc(OCC6(CN7CC[C@@H](C(F)(F)F)C7)CC6)nc5c3F)N3C[C@H]5CC[C@H](N5)[C@H]3CO4)c12 [Example 43, 5-ethynyl-6-fluoro-4-((5aS,6S,9R)-1-fluoro-12-((1-(((R)-3-(trifluoromethyl)pyrrolidin-1-yl)methyl)cyclopropyl)methoxy)-5a,6,7,8,9,10-hexahydro-5H-4-oxa-3,10a,11,13,14-pentaaza-6,9-methanonaphtho[1,8-ab]heptalen-2-yl)naphthalen-2-ol] | 0.6 | 5 |
| C#Cc1c(F)ccc2cc(O)cc(-c3nc4c5c(nc(OCC6(CN7CC[C@H](C(F)(F)F)C7)CC6)nc5c3F)N3C[C@H]5CC[C@H](N5)[C@H]3CO4)c12 [Example 44, 5-ethynyl-6-fluoro-4-((5aS,6S,9R)-1-fluoro-12-((1-(((S)-3-(trifluoromethyl)pyrrolidin-1-yl)methyl)cyclopropyl)methoxy)-5a,6,7,8,9,10-hexahydro-5H-4-oxa-3,10a,11,13,14-pentaaza-6,9-methanonaphtho[1,8-ab]heptalen-2-yl)naphthalen-2-ol] | 2 | 7 |
| C#Cc1c(F)ccc2cc(O)cc(-c3nc4c5c(nc(OC[C@@]67CCCN6[C@H](COC(=O)N(C)C(F)(F)F)CC7)nc5c3F)N3C[C@H]5CC[C@H](N5)[C@H]3CO4)c12 [Example 45, ((3S,7aS)-7a-((((5aS,6S,9R)-2-(8-ethynyl-7-fluoro-3-hydroxynaphthalen-1-yl)-1-fluoro-5a,6,7,8,9,10-hexahydro-5H-4-oxa-3,10a,11,13,14-pentaaza-6,9-methanonaphtho[1,8-ab]heptalen-12-yl)oxy)methyl)hexahydro-1H-pyrrolizin-3-yl)methyl methyl(trifluoromethyl)carbamate] | 0.3 | 4 |
| Fc1c(-c2cccc3ccccc23)nc2c3c(nc(OC[C@@]45CCCN4C[C@H](F)C5)nc13)N1C[C@H]3CC[C@H](N3)[C@H]1CO2 [Example 46, (5aS,6S,9R)-1-fluoro-12-(((2R,7aS)-2-fluorotetrahydro-1H-pyrrolizin-7a(5H)-yl)methoxy)-2-(naphthalen-1-yl)-5a,6,7,8,9,10-hexahydro-5H-4-oxa-3,10a,11,13,14-pentaaza-6,9-methanonaphtho[1,8-ab]heptalene] | 910 | > 1000 |
| Fc1cc(-c2nc3c4c(nc(OC[C@@]56CCCN5C[C@H](F)C6)nc4c2F)N2C[C@H]4CC[C@H](N4)[C@H]2CO3)c2ccccc2c1 [Example 47, (5aS,6S,9R)-1-fluoro-2-(3-fluoronaphthalen-1-yl)-12-(((2R,7aS)-2-fluorotetrahydro-1H-pyrrolizin-7a(5H)-yl)methoxy)-5a,6,7,8,9,10-hexahydro-5H-4-oxa-3,10a,11,13,14-pentaaza-6,9-methanonaphtho[1,8-ab]heptalene] | 3400 | > 1000 |
| Fc1ccc2ccccc2c1-c1nc2c3c(nc(OC[C@@]45CCCN4C[C@H](F)C5)nc3c1F)N1C[C@H]3CC[C@H](N3)[C@H]1CO2 [Example 48, (5aS,6S,9R)-1-fluoro-2-(2-fluoronaphthalen-1-yl)-12-(((2R,7aS)-2-fluorotetrahydro-1H-pyrrolizin-7a(5H)-yl)methoxy)-5a,6,7,8,9,10-hexahydro-5H-4-oxa-3,10a,11,13,14-pentaaza-6,9-methanonaphtho[1,8-ab]heptalene] | 2200 | > 1000 |
